PubChem BioAssay AID1918946 (Molecular Pharmacology Branch, DTP, NCI, 2023)
pIC50: −log10 of the molar value. Values joined by “and” are separate entries in the source; they are usually repeats but may differ in a detail not shown here. Equal entries are not always repeated.

Test system: 885512-296-R-J2-PDC complex spheroid viability
Experiment: Anticancer human tumor 885512-296-R-J2-PDC patient-derived breast carcinoma cell line growth inhibition
Settings: for viability, T/C: stronger effect = lower value; active = viability on the fitted dose curve at most 10% of control; inactive = the rest
Text: Multicellular complex tumor spheroid response to LSD1 Inhibitor Iadademstat in combination with a variety of drugs and investigational agents in selected tumor cell lines
The current study was undertaken to assess response to LSD1 inhibitors in combination with standard-of-care drugs and investigational agents in solid tumor complex spheroid models as well as in the K-562 leukemia. Complex spheroids include a stromal component modeled by human endothelial cells (HUVEC) and fibroblasts modeled by human mesenchymal stem cells (MSCs). The concentration ranges selected for each drug and investigational agent were based upon clinically achievable concentrations if the clinical Cmax of the agent was known.
Compounds. The drugs and investigational agents used in this study are listed on Table 1. All of the agents used, including staurosporine (NSC755774) and gemcitabine (NSC613327), were obtained from the Developmental Therapeutics Program, NCI. FDA-approved anticancer drugs are available from the NCI at http://dtp.nci.nih.gov/branches/dscb/oncology_drugset_explanation.html. Drugs and investigational agents were >95% pure by proton nuclear magnetic resonance (NMR) and liquid chromatography/mass spectrometry (LC/MS). Stock solutions were prepared at 400x in DMSO, stored at -70 degrees C, and diluted in fresh medium prior to their use. The final concentration of DMSO in cell culture wells never exceeded 0.25% (v/v). The FDA-approved anticancer drug set is available from the Developmental Therapeutics Program at https://dtp.cancer.gov/organization/dscb/obtaining/available_plates.htm. All drugs and investigational agents were tested over a range starting from a high concentration at or near the clinical Cmax and decreasing in half-log increments. If the clinical Cmax for an agent had not been determined, the highest concentration tested was 10 microM.
Cell Lines. The patient-derived cancer cell (PDC) lines: 292921-168-R-J2-PDC, K24384-001-R-PDC, and 521955-158-R2-J5-PDC pancreatic carcinomas, 556581-035-R-J1 ovarian carcinoma, 324938-238-R-J1-PDC, 855422-203-R-J1-PDC and 883617-216-R-J1-PDC urothelial bladder carcinomas, 743489-274-T-PDC renal cell carcinoma, 138582-R-J1 Merkel cell tumor, K60290-347-R-J1 and K57222-313-R-J1-PDC glioblastomas, 653999-131-R-J2-PDC, LG0703-F948-PDC, and 349418-098-R-PDC non-small cell lung carcinomas, 885512-296-R-J2-PDC, 171881-019-R-J1-PDC breast carcinomas and 186277-243-T-J2-PDC and 233499-124-R-J2-PDC colon carcinomas were obtained from the NCI Patient-Derived Models Repository (PDMR, https://pdmr.cancer.gov). The established cell lines NCI/ADR-RES (RRID:CVCL_14520 and OVCAR-5 (RRID:CVCL_1628) ovarian carcinomas, 786-O (RRID:CVCL_1051) and A498 (RRID:CVCL_A498) renal cell carcinoma, NCI-H211 (ATCC, cat. CRL-5824; RRID:CVCL_1529), NCI-H196 (ATCC, cat. CRL-5823, RRID:CVCL_1509), SW 1271 (ATCC, cat. CRL-2177, RRID:CVCL_1716) and NCI-H1876 (ATCC, cat. CRL-5902, RRID:CVCL_1503) small cell lung carcinomas, MDA-MB-231 (RRID:CVCL_0062) and MDA-MB-468 (RRID:CVCL_0419)breast carcinomas (10-12). Pooled donor human umbilical vein endothelial cells (HUVEC, Lonza, cat. CC-2519) and human mesenchymal stem cells (hMSC, Lonza, cat. PT-2501) were purchased from Lonza (Walkersville, MD).
Cell Culture. All cells were maintained in an incubator at 37 degrees C and 5% CO2 with 95% humidity. The PDC lines were cultured according to standard operating procedures established by the NCI PDMR (https://pdmr.cancer.gov). Briefly all PDCs were thawed and cultured in Matrigel-coated flasks prepared with a working solution of 1X Ham's F-12 nutrient mix, without supplementation (Invitrogen, Waltham, MA, cat. 11765054), 100 U/mL penicillin-streptomycin (Invitrogen, cat. 15140122), and 2.5% Matrigel (Corning Inc., Corning, NY, cat. 354248) for the first three passages. […]

[1] = curve of first compound, second compound 0.1 µM
[2] = curve of first compound, second compound 0.316 µM
[3] = curve of first compound, second compound 1 µM
[4] = curve of first compound, second compound 3.16 µM
[5] = curve of first compound, second compound 10 µM
[6] = second compound 0.1 µM, first compound 0.00316 µM
[7] = second compound 0.1 µM, first compound 0.01 µM
[8] = second compound 0.1 µM, first compound 0.0316 µM
[9] = second compound 0.1 µM, first compound 0.1 µM
[10] = second compound 0.1 µM, first compound 0.316 µM
[11] = second compound 0.1 µM, first compound 1 µM
[12] = second compound 0.316 µM, first compound 0.00316 µM
[13] = second compound 0.316 µM, first compound 0.01 µM
[14] = second compound 0.316 µM, first compound 0.0316 µM
[15] = second compound 0.316 µM, first compound 0.1 µM
[16] = second compound 0.316 µM, first compound 0.316 µM
[17] = second compound 0.316 µM, first compound 1 µM
[18] = second compound 1 µM, first compound 0.00316 µM
[19] = second compound 1 µM, first compound 0.01 µM
[20] = second compound 1 µM, first compound 0.0316 µM
[21] = second compound 1 µM, first compound 0.1 µM
[22] = second compound 1 µM, first compound 0.316 µM
[23] = second compound 1 µM, first compound 1 µM
[24] = second compound 3.16 µM, first compound 0.00316 µM
[25] = second compound 3.16 µM, first compound 0.01 µM
[26] = second compound 3.16 µM, first compound 0.0316 µM
[27] = second compound 3.16 µM, first compound 0.1 µM
[28] = second compound 3.16 µM, first compound 0.316 µM
[29] = second compound 3.16 µM, first compound 1 µM
[30] = second compound 10 µM, first compound 0.00316 µM
[31] = second compound 10 µM, first compound 0.01 µM
[32] = second compound 10 µM, first compound 0.0316 µM
[33] = second compound 10 µM, first compound 0.1 µM
[34] = second compound 10 µM, first compound 0.316 µM
[35] = second compound 10 µM, first compound 1 µM
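Note: spheroids exposed to agents for 7 days before viability read.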

CC1COCCN1c1cc(-c2ccnn2C)c2ccnc(-c3ccn[nH]3)c2n1 (stereo unspecified) + NC1CCC(NC2CC2c2ccccc2)CC1
active: viability, T/C [7] 8.7% | viability, T/C [8] 9.16% | viability, T/C [9] 5.02% | viability, T/C [10] 7.43% | viability, T/C [11] 11.5% | viability, T/C [14] 4.73% | viability, T/C [15] 4.6% | viability, T/C [16] 6.77% | viability, T/C [17] 5.15% | viability, T/C [20] 5.72% | viability, T/C [21] 5.22% | viability, T/C [22] 4.61% | viability, T/C [23] 8.49% | viability, T/C [25] 7.56% | viability, T/C [26] 3.3% | viability, T/C [27] 6.46% | viability, T/C [28] 4.63% | viability, T/C [29] 4.98% | viability, T/C [31] 5.72% | viability, T/C [32] 3.24% | viability, T/C [33] 2.51% | viability, T/C [34] 2.18% | viability, T/C [35] 2.8%
inactive: viability, T/C [6] 42% | viability, T/C [12] 42% | viability, T/C [13] 10.9% | viability, T/C [18] 38.8% | viability, T/C [19] 10.6% | viability, T/C [24] 38.8% | viability, T/C [30] 23.8%
> 8.50: pIC50 [1] | pIC50 [2] | pIC50 [3] | pIC50 [4] | pIC50 [5]

Nc1ncn(C2CC(O)C(CO)O2)c(=O)n1 (stereo unspecified)
inactive: viability, T/C (compound 0.00316 µM) 74.3% and 93.4% | viability, T/C (compound 0.01 µM) 60.7% and 84.3% | viability, T/C (compound 0.0316 µM) 40.7% and 68.5% | viability, T/C (compound 0.1 µM) 28.2% and 37.6% | viability, T/C (compound 0.316 µM) 23.4% and 23.6% | viability, T/C (compound 1 µM) 11.6% and 15.8%
7.73 and 7.19: pIC50 (curve of compound)

Nc1ncn(C2CC(O)C(CO)O2)c(=O)n1 (stereo unspecified) + NC1CCC(NC2CC2c2ccccc2)CC1
7.57: pIC50 [4]
7.51: pIC50 [1]
7.55: pIC50 [3]
inactive: viability, T/C [6] 91.3% | viability, T/C [7] 91.5% | viability, T/C [8] 46.9% | viability, T/C [9] 25.2% | viability, T/C [10] 12.7% | viability, T/C [11] 13.6% | viability, T/C [12] 105% | viability, T/C [13] 75.5% | viability, T/C [14] 53% | viability, T/C [15] 24.6% | viability, T/C [16] 14.8% | viability, T/C [17] 15.4% | viability, T/C [18] 101% | viability, T/C [19] 74.1% | viability, T/C [20] 47% | viability, T/C [21] 30.8% | viability, T/C [22] 14.5% | viability, T/C [23] 16.1% | viability, T/C [24] 80.1% | viability, T/C [25] 72.6% | viability, T/C [26] 44.4% | viability, T/C [27] 28.9% | viability, T/C [28] 19.8% | viability, T/C [29] 16.1% | viability, T/C [30] 74.8% | viability, T/C [31] 59% | viability, T/C [32] 45.4% | viability, T/C [33] 21.4% | viability, T/C [34] 15.6% | viability, T/C [35] 11.5%
7.52: pIC50 [2]
7.70: pIC50 [5]

COc1cc(Nc2ncc3c(n2)-c2ccc(Cl)cc2C(c2c(F)cccc2OC)=NC3)ccc1C(=O)O + NC1CCC(NC2CC2c2ccccc2)CC1
8.13: pIC50 [2] | pIC50 [3]
8.29: pIC50 [5]
inactive: viability, T/C [6] 78.8% | viability, T/C [7] 42.8% | viability, T/C [8] 33.2% | viability, T/C [9] 24% | viability, T/C [10] 12.3% | viability, T/C [11] 13.2% | viability, T/C [12] 90.6% | viability, T/C [13] 31.3% | viability, T/C [14] 34.2% | viability, T/C [15] 39.1% | viability, T/C [16] 14.5% | viability, T/C [17] 11.5% | viability, T/C [18] 90.9% | viability, T/C [19] 29.4% | viability, T/C [20] 37.3% | viability, T/C [21] 22.1% | viability, T/C [22] 17.5% | viability, T/C [23] 13.2% | viability, T/C [24] 87.4% | viability, T/C [25] 42.1% | viability, T/C [26] 33.7% | viability, T/C [27] 38.1% | viability, T/C [28] 14.6% | viability, T/C [29] 16.6% | viability, T/C [30] 70.5% | viability, T/C [31] 21.4% | viability, T/C [32] 29.7% | viability, T/C [33] 22.7% | viability, T/C [34] 17.1% | viability, T/C [35] 15.3%
8.02: pIC50 [4]
8.05: pIC50 [1]

CC(C)CC(NC(=O)C(Cc1ccccc1)NC(=O)c1cnccn1)B(O)O (stereo unspecified)
active: viability, T/C (compound 0.00316 µM) 2.61% and 0.22% | viability, T/C (compound 0.01 µM) 4.07% and 0.18% | viability, T/C (compound 0.0316 µM) 0.12% and 0.1% | viability, T/C (compound 0.1 µM) 3.52% and 0.14%
inactive: viability, T/C (compound 0.000316 µM) 99.8% and 17.9%
9.06 and > 9.50: pIC50 (curve of compound)

NC1CCC(NC2CC2c2ccccc2)CC1 (stereo unspecified)
inactive: viability, T/C (compound 0.316 µM) 121% (2×) and 120%
< 5.00: pIC50 (compound alone, run of 01/24/2022)

NS(=O)(=O)OCC1CC(n2ccc3c(NC4CCc5ccccc54)ncnc32)CC1O (stereo unspecified)
inactive: viability, T/C (compound 0.00949 µM) 19.9% and 20.9%
active: viability, T/C (compound 0.03 µM) 8.83% and 6.03% | viability, T/C (compound 0.0949 µM) 7.38% and 2.26% | viability, T/C (compound 0.3 µM) 4.17% and 1.57% | viability, T/C (compound 0.949 µM) 8.44% and 0.8% | viability, T/C (compound 3 µM) 6.16% and 0.67%
> 8.02: pIC50 (curve of compound)

Nc1ncn(C2CC(O)C(CO)S2)c(=O)n1 (stereo unspecified)
inactive: viability, T/C (compound 0.000949 µM) 81.4% and 90.5% | viability, T/C (compound 0.003 µM) 52.7% and 62.2% | viability, T/C (compound 0.00949 µM) 39.5% and 33.1% | viability, T/C (compound 0.03 µM) 17.3% and 19.7%
active: viability, T/C (compound 0.3 µM) 12% and 4.63%
10.9% and 9.65%: viability, T/C (compound 0.0949 µM)
8.39 and 8.31: pIC50 (curve of compound)

CC1COCCN1c1cc(C2(S(C)(=N)=O)CC2)nc(-c2ccnc3[nH]ccc23)n1 (stereo unspecified)
inactive: viability, T/C (compound 0.0316 µM) 89.7% and 84.5% | viability, T/C (compound 0.1 µM) 69.7% and 90.6% | viability, T/C (compound 0.316 µM) 14.4% and 49.3%
active: viability, T/C (compound 1 µM) 7.6% and 9.02% | viability, T/C (compound 3.16 µM) 7.26% and 2.77% | viability, T/C (compound 10 µM) 7.13% and 1.85%
6.82 and 6.50: pIC50 (curve of compound)
